Type in all cases: in vivo
For one assay, the system named is Musca domestica. The assay can be described thus: Test Example 2: filter paper/sucrose bait test against housefly imagoes. As to conditions: read-out: rate of dead pests. Here is the method:
On the bottom of a polyethylene cup having a diameter of 5.5 cm, a filter paper having the same diameter was laid, and 0.7 ml of the above test solution was added dropwise on the filter paper, followed by putting 30 mg of sucrose on it uniformly as a bait. Ten female Musca domestica imagoes were set free in the polyethylene cup and covered it with a lid. After 24 hours, the number of surviving and dead Musca domestica was examined and the rate of dead pests was calculated.

The subject of a further assay is Blattella germanica. The assay can be described thus: Test Example 3: filter paper/sucrose bait test against German cockroach imagoes. The following applies: Blattella germanica, 144 h, read-out: rate of dead pests. Here is the method:
On the bottom of a polyethylene cup having a diameter of 5.5 cm, a filter paper having the same diameter was laid, and 0.7 ml of the above test solution was added dropwise on the filter paper, followed by putting 30 mg of sucrose on it uniformly as a bait. Two male Blattella germanica imagoes were set free in the polyethylene cup and covered it with a lid. After 6 days, the number of surviving and dead Blattella germanica was examined and the rate of dead pests was calculated.

Another assay deals with Culex pipiens pallens. In words: Test Example 4: mosquito larvae test in treated water. The following applies: 24 h, read-out: rate of dead pests. Here is the method: 0.7 ml of above test solution was added to 100 ml of ion exchanged water (active ingredient concentration: 3.5 ppm). Twenty last-instar larvae of Culex pipiens pallens were set free in the solution. After one day, the number of surviving and dead Culex pipiens pallens was examined and the rate of dead pests was calculated.

[1] abbreviates: 500 ppm test solution, 0.7 ml on filter paper with 30 mg sucrose, ten female imagoes, after 24 hours.
Where [2] appears, read: 500 ppm test solution, 0.7 ml on filter paper with 30 mg sucrose, two male imagoes, after 6 days.
Setting [3] is: active ingredient concentration 3.5 ppm in water, twenty last-instar larvae, after one day.

Where two headings read alike, the source gives them in different places. Where only a bound is given, the exact number is not on record here.

For the molecule `CCNC(=O)C(C)(CCC(F)(F)C(F)(F)F)S(=O)(=O)CCC(F)(F)F` (stereo not drawn) [(37)], the pest or weed control at 500 ppm in the assay on Musca domestica (setting [1]) was ≥ 70%; in the assay with Blattella germanica (setting [2]), 100%. For the same molecule, the pest or weed control at 3.5 ppm with Culex pipiens pallens (setting [3]) was ≥ 90%.

For the molecule `CC(C#N)(CCC(F)(F)C(F)(F)F)S(=O)(=O)CCC(F)(F)F` (stereo not drawn) [(11)], the pest or weed control at 500 ppm is ≥ 70% in the assay on Musca domestica (setting [1]) and 100% in the assay with Blattella germanica (setting [2]). Further, in the assay on Culex pipiens pallens (setting [3]), the pest or weed control at 3.5 ppm is ≥ 90%.

Take `CCOC(=O)C(C)(CCC(F)(F)C(F)(F)F)S(=O)(=O)CCC(F)(F)F` (stereo not drawn) [(46)]: the results for the pest or weed control at 500 ppm in the assay on Musca domestica (setting [1]) and in the assay on Blattella germanica (setting [2]) were ≥ 70% and 100%, respectively. Besides, the pest or weed control at 3.5 ppm in the assay on Culex pipiens pallens (setting [3]) is ≥ 90%.

With `NC(=O)C(F)(CCC(F)(F)C(F)(F)F)S(=O)(=O)CCC(F)(F)C(F)(F)C(F)(F)F` (stereo not drawn) [(67)], the results for the pest or weed control at 500 ppm in the assay with Musca domestica (24 h) and with Blattella germanica were ≥ 70% and 100%, respectively. In the assay with Culex pipiens pallens, the pest or weed control at 3.5 ppm was ≥ 90%.

Turning to `N#CC(Cl)(CCC(F)(F)C(F)(F)F)S(=O)(=O)CCC(F)(F)F` (stereo not drawn) [(21)], the pest or weed control at 500 ppm in the assay with Musca domestica (setting [1]) is ≥ 70%; in the assay with Blattella germanica (setting [2]), 100%. Moreover, in the assay on Culex pipiens pallens (setting [3]), the pest or weed control at 3.5 ppm was ≥ 90%.

With `CC(C#N)(CCC(F)(F)C(F)(F)F)S(=O)(=O)CCC(F)(F)C(F)(F)C(F)(F)F` (stereo not drawn) [(14)], the pest or weed control at 500 ppm is ≥ 70% in the assay on Musca domestica (24 h) and 100% in the assay with Blattella germanica. Moreover, in the assay with Culex pipiens pallens, the pest or weed control at 3.5 ppm is ≥ 90%.

With `CC(C#N)(CCC(F)(F)C(F)(F)F)[S+]([O-])CCC(F)(F)F` (stereo not drawn) [(57)], the values for the pest or weed control at 500 ppm in the assay with Musca domestica (setting [1]) and in the assay with Blattella germanica (setting [2]) were ≥ 70% and 100%, respectively. The pest or weed control at 3.5 ppm in the assay on Culex pipiens pallens (setting [3]) is ≥ 90%.

With `N#CC(CCC(F)(F)C(F)(F)F)S(=O)(=O)CCC(F)(F)C(F)(F)F` (stereo not drawn) [(8)], the pest or weed control at 500 ppm in the assay on Musca domestica (setting [1]) was ≥ 70%; in the assay with Blattella germanica (setting [2]), 100%. The pest or weed control at 3.5 ppm with Culex pipiens pallens (setting [3]) was ≥ 90%.

`N#CC(CC(F)(F)C(F)(F)C(F)(F)F)S(=O)(=O)CCC(F)(F)C(F)(F)F` (stereo not drawn) [(9)]: the pest or weed control at 500 ppm with Musca domestica (24 h) was ≥ 70%; in the assay with Blattella germanica, 100%. In addition, the pest or weed control at 3.5 ppm with Culex pipiens pallens was ≥ 90%.

For `NC(=O)C(Cl)(CCCC(F)(F)F)S(=O)(=O)CCC(F)(F)F` (stereo not drawn) [(80)], the pest or weed control at 500 ppm is ≥ 70% in the assay with Musca domestica (setting [1]) and 100% in the assay on Blattella germanica (setting [2]). Also, in the assay on Culex pipiens pallens (setting [3]), the pest or weed control at 3.5 ppm was ≥ 90%.

On to `COC(=O)C(C)(CCC(F)(F)C(F)(F)F)S(=O)(=O)CCC(F)(F)F` (stereo not drawn) [(26)], for which the pest or weed control at 500 ppm in the assay on Musca domestica (setting [1]) is ≥ 70%; in the assay on Blattella germanica (setting [2]), 100%. The pest or weed control at 3.5 ppm in the assay with Culex pipiens pallens (setting [3]) was ≥ 90%.

For the molecule `CC(CCC(F)(F)C(F)(F)F)(C(N)=O)S(=O)(=O)CCC(F)(F)F` (stereo not drawn) [(34)], the pest or weed control at 500 ppm in the assay with Musca domestica (setting [1]) is ≥ 70%; in the assay on Blattella germanica (setting [2]), 100%. In addition, the pest or weed control at 3.5 ppm in the assay with Culex pipiens pallens (setting [3]) is ≥ 90%.

On to `COC(=O)C(F)(CCC(F)(F)C(F)(F)F)S(=O)(=O)CCC(F)(F)C(F)(F)F` (stereo not drawn) [(72)], for which the pest or weed control at 500 ppm with Musca domestica (setting [1]) was ≥ 70%; with Blattella germanica (setting [2]), 100%. The pest or weed control at 3.5 ppm in the assay on Culex pipiens pallens (setting [3]) was ≥ 90%.

Turning to `N#CC(CC(F)(F)C(F)(F)F)S(=O)(=O)CCC(F)(F)F` (stereo not drawn) [(2)], the results for the pest or weed control at 500 ppm with Musca domestica (setting [1]) and with Blattella germanica (setting [2]) were ≥ 70% and 100%, respectively. Moreover, the pest or weed control at 3.5 ppm in the assay on Culex pipiens pallens (setting [3]) is ≥ 90%.

For `COC(=O)C(C)(CCC(F)(F)C(F)(F)F)[S+]([O-])CCC(F)(F)F` (stereo not drawn) [(71)], the pest or weed control at 500 ppm in the assay on Musca domestica (setting [1]) is ≥ 70%; in the assay with Blattella germanica (setting [2]), 100%. The pest or weed control at 3.5 ppm in the assay with Culex pipiens pallens (setting [3]) was ≥ 90%.

As for `CC(CCC(F)(F)C(F)(F)C(F)(F)F)(C(N)=O)S(=O)(=O)CCC(F)(F)C(F)(F)F` (stereo not drawn) [(56)], the pest or weed control at 500 ppm in the assay on Musca domestica (24 h) was ≥ 70%; with Blattella germanica, 100%. Also, the pest or weed control at 3.5 ppm in the assay with Culex pipiens pallens is ≥ 90%.

As for `CNC(=O)C(Cl)(CCC(F)(F)C(F)(F)F)S(=O)(=O)CCC(F)(F)F` (stereo not drawn) [(75)], the pest or weed control at 500 ppm in the assay with Musca domestica (setting [1]) is ≥ 70%; with Blattella germanica (setting [2]), 100%. Further, the pest or weed control at 3.5 ppm with Culex pipiens pallens (setting [3]) is ≥ 90%.

`N#CC(CCCC(F)(F)F)S(=O)(=O)CCC(F)(F)F` (stereo not drawn) [(39)]: the pest or weed control at 500 ppm was ≥ 70% in the assay with Musca domestica (setting [1]) and 100% in the assay with Blattella germanica (setting [2]). Also, the pest or weed control at 3.5 ppm in the assay with Culex pipiens pallens (setting [3]) is ≥ 90%.

As for `NC(=O)C(Cl)(CCC(F)(F)F)S(=O)(=O)CCC(F)(F)F` (stereo not drawn) [(81)], the pest or weed control at 500 ppm in the assay on Musca domestica (setting [1]) was ≥ 70%; with Blattella germanica (setting [2]) it was 100%. For the same molecule, the pest or weed control at 3.5 ppm with Culex pipiens pallens (setting [3]) is ≥ 90%.

`COC(=O)C(F)(CCC(F)(F)C(F)(F)C(F)(F)F)S(=O)(=O)CCC(F)(F)F` (stereo not drawn) [(90)]: the pest or weed control at 500 ppm with Musca domestica (24 h) was ≥ 70%; in the assay with Blattella germanica, 100%. Also, in the assay on Culex pipiens pallens, the pest or weed control at 3.5 ppm is ≥ 90%.

As to `NC(=O)C(CCC(F)(F)C(F)(F)F)S(=O)(=O)CCC(F)(F)C(F)(F)F` (stereo not drawn) [(60)], the pest or weed control at 500 ppm with Musca domestica (setting [1]) was ≥ 70%; with Blattella germanica (setting [2]), 100%. In addition, the pest or weed control at 3.5 ppm with Culex pipiens pallens (setting [3]) was ≥ 90%.

With `COC(=O)C(C)(CCC(F)(F)C(F)(F)F)S(=O)(=O)CCC(F)(F)C(F)(F)F` (stereo not drawn) [(30)], the pest or weed control at 500 ppm was ≥ 70% with Musca domestica (setting [1]) and 100% in the assay on Blattella germanica (setting [2]). Also, the pest or weed control at 3.5 ppm with Culex pipiens pallens (setting [3]) was ≥ 90%.

Turning to `CCCNC(=O)C(C)(CCC(F)(F)C(F)(F)F)S(=O)(=O)CCC(F)(F)F` (stereo not drawn) [(40)], the pest or weed control at 500 ppm is ≥ 70% in the assay with Musca domestica (setting [1]) and 100% in the assay with Blattella germanica (setting [2]). Moreover, the pest or weed control at 3.5 ppm in the assay on Culex pipiens pallens (setting [3]) is ≥ 90%.

For the molecule `CC(CCC(F)(F)C(F)(F)F)(C(N)=O)S(=O)(=O)CCC(F)(F)C(F)(F)F` (stereo not drawn) [(61)], the pest or weed control at 500 ppm with Musca domestica (setting [1]) is ≥ 70%; with Blattella germanica (setting [2]), 100%. For the same molecule, the pest or weed control at 3.5 ppm with Culex pipiens pallens (setting [3]) is ≥ 90%.

For the molecule `NC(=O)C(CCC(F)(F)C(F)(F)F)S(=O)(=O)CCC(F)(F)F` (stereo not drawn) [(31)], the results for the pest or weed control at 500 ppm in the assay with Musca domestica (setting [1]) and in the assay with Blattella germanica (setting [2]) were ≥ 70% and 100%, respectively. Also, in the assay with Culex pipiens pallens (setting [3]), the pest or weed control at 3.5 ppm was ≥ 90%.

For the molecule `NC(=O)C(Cl)(CCC(F)(F)C(F)(F)C(F)(F)C(F)(F)F)S(=O)(=O)CCC(F)(F)F` (stereo not drawn) [(87)], the pest or weed control at 500 ppm in the assay with Musca domestica (24 h) is ≥ 70%; in the assay with Blattella germanica it was 100%. Moreover, the pest or weed control at 3.5 ppm in the assay with Culex pipiens pallens is ≥ 90%.

For `CN(C)C(=O)C(CCC(F)(F)C(F)(F)F)S(=O)(=O)CCC(F)(F)F` (stereo not drawn) [(33)], the pest or weed control at 500 ppm with Musca domestica (setting [1]) is ≥ 70%; with Blattella germanica (setting [2]), 100%. Besides, the pest or weed control at 3.5 ppm with Culex pipiens pallens (setting [3]) is ≥ 90%.

As for `CCC(CCC(F)(F)C(F)(F)F)(C(N)=O)S(=O)(=O)CCC(F)(F)F` (stereo not drawn) [(38)], the pest or weed control at 500 ppm is ≥ 70% in the assay with Musca domestica (setting [1]) and 100% with Blattella germanica (setting [2]). Moreover, the pest or weed control at 3.5 ppm with Culex pipiens pallens (setting [3]) is ≥ 90%.

With `NC(=O)C(Cl)(CCC(F)(F)C(F)(F)F)S(=O)(=O)CCC(F)(F)C(F)(F)F` (stereo not drawn) [(89)], the pest or weed control at 500 ppm was ≥ 70% in the assay with Musca domestica (setting [1]) and 100% with Blattella germanica (setting [2]). In addition, in the assay with Culex pipiens pallens (setting [3]), the pest or weed control at 3.5 ppm is ≥ 90%.

`N#CC(CC(F)(F)C(F)(F)C(F)(F)F)S(=O)(=O)CCC(F)(F)F` (stereo not drawn) [(4)]: the pest or weed control at 500 ppm with Musca domestica (24 h) was ≥ 70%; in the assay with Blattella germanica, 100%. In addition, the pest or weed control at 3.5 ppm in the assay on Culex pipiens pallens is ≥ 90%.

`NC(=O)C(Cl)(CCC(F)(F)C(F)(F)F)S(=O)(=O)CCC(F)(F)F` (stereo not drawn) [(59)]: the pest or weed control at 500 ppm in the assay with Musca domestica (setting [1]) is ≥ 70%; with Blattella germanica (setting [2]) it was 100%. For the same molecule, the pest or weed control at 3.5 ppm in the assay on Culex pipiens pallens (setting [3]) was ≥ 90%.

Source of the values: US8017656B2, “Organic sulfur compounds and use thereof” (Sumitomo Chemical Company, Limited, priority 2005, dated 2011).
